Laboratory results: US20030050306A1, “Novel heteroaryl derivatives, their preparation and use” (H. Lundbeck A/S, priority 1999, published 2003)
Counter-ions that a name gives are not always drawn.

Key:
[1] = target: T1, cloned human 5-HT1A receptors (Homo sapiens, UniProt P08908); assay: Inhibition of 3H-5-CT binding to human 5-HT1A receptors; settings: cloned human 5-HT1A receptors in HeLa cells (HA7); for inhibition at 0.1 µM: at 100 nM
T1 construct: expressed in transfected cells; host or cells: HeLa cells (HA7)
T1 sequence (P08908 1-422): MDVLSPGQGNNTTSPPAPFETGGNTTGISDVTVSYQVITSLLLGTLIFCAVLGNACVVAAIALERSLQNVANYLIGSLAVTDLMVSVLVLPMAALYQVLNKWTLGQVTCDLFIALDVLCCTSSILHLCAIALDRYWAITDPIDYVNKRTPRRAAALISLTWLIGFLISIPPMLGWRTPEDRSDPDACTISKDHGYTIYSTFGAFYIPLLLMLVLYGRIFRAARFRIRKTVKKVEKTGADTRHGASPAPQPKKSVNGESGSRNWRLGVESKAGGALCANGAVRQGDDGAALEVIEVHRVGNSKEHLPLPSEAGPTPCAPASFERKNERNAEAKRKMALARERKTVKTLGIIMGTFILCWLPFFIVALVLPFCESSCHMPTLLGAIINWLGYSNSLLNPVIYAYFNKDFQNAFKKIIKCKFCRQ
Outline: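 Cloned human 5-HT1A receptors stably expressed in transfected HeLa cells (HA7); 40 μg cell homogenate incubated 15 min at 37° C in 50 mM Tris pH 7.7 with 3H-5-CT. Non-specific binding defined with 10 μM metergoline; bound radioligand separated by rapid GF/B filtration and counted.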

[2] = target: T2, human cloned dopamine D4.2 receptors (Homo sapiens, UniProt P21917, DEL265-296); assay: Inhibition of the binding of 3H-YM-09151-2 to human dopamine D4 receptors; settings: human cloned dopamine D4.2 receptors in CHO-cells; for inhibition at 0.05 µM: at 50 nM
T2 construct: expressed in transfected cells; host or cells: CHO cells
T2 sequence (P21917 with tags, fused parts or gaps DEL265-296): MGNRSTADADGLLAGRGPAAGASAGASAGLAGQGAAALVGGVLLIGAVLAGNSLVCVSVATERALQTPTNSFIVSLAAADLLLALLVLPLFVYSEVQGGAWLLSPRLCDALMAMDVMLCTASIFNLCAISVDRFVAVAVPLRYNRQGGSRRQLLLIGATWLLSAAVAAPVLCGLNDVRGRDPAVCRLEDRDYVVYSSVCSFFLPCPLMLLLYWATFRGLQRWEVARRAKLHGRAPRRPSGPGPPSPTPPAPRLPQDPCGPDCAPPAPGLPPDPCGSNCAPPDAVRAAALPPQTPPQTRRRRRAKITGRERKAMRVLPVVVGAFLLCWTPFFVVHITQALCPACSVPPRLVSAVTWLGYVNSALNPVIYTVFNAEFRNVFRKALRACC
Outline: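 Radioligand displacement of [3H]YM-09151-2 (0.06 nM) from membranes of CHO cells expressing cloned human D4.2 receptors, measured in vitro.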

| SMILES | melting point | IC50 [1] [nM] | IC50 [2] [nM] | inhibition at 0.05 µM [2] [%] | other results |
| --- | --- | --- | --- | --- | --- |
| N#Cc1ccc(N2CCN(CCCOc3ccccc3Cl)CC2)c2c1OCCO2 (as salt: oxalate) [Compound 6c, 8-{4-[3-(2-Chloro-phenoxy)-propyl]-piperazin-1-yl}-2,3-dihydro-benzo[1,4]dioxine-5-carbonitrile] | 96 to 98 °C | – | – | – | – |
| COc1cc(F)ccc1OCCCN1CCN(c2cccc3c2OCCO3)CC1 (as salt: oxalate) [Compound 1d, 1-(2,3-Dihydro-benzo[1,4]dioxin-5-yl)-4-[3-(4-fluoro-2-methoxy-phenoxy)-propyl]-piperazine] | 141 to 142 °C | – | – | – | – |
| N#Cc1ccc(N2CCN(CCCOc3ccc(F)cc3Br)CC2)c2c1OCCO2 (as salt: oxalate) [Compound 6b, 8-{4-[3-(2-Bromo-4-fluoro-phenoxy)-propyl]-piperazin-1-yl}-2,3-dihydro-benzo[1,4]dioxine-5-carbonitrile] | 152 to 154 °C | – | – | – | – |
| Fc1ccc(OCCCCN2CCN(c3cccc4ccsc34)CC2)c(Cl)c1 (as salt: hydrochloride) [Compound 2f, 1-Benzo[b]thiophen-7-yl-4-[4-(2-chloro-4-fluoro-phenoxy)-butyl]-piperazine] | 193 to 195 °C | – | – | – | – |
| Fc1ccc(SCCN2CCN(c3cccc4c3OCCO4)CC2)cc1 (as salt: oxalate) [Compound 3b, 1-(2,3-Dihydro-benzo[1,4]dioxin-5-yl)-4-[2-(4-fluoro-phenylsulfanyl)-ethyl]-piperazine] | 200 to 202 °C | – | – | – | – |
| Fc1cc(F)c(OCCCN2CCN(c3cccc4c3OCCO4)CC2)c(F)c1 (as salt: hydrochloride) [Compound 1c, 1-(2,3-Dihydro-benzo[1,4]dioxin-5-yl)-4-[3-(2,4,6-trifluoro-phenoxy)-propyl]-piperazine] | 210 to 220 °C | – | – | – | – |
| FC(F)(F)c1ccc(OCCCN2CCN(c3cccc4c3OCCO4)CC2)cc1 (as salt: oxalate) [Compound 2b, 1-(2,3-Dihydro-benzo[1,4]dioxin-5-yl)-4-[3-(4-trifluoromethyl-phenoxy)-propyl]-piperazine] | 148 to 150 °C | – | – | – | – |
| Clc1cccc(Cl)c1SCCCCN1CCN(c2cccc3c2OCCO3)CC1 [Compound 5ab, 1-[4-(2,6-Dichloro-phenylsulfanyl)-butyl]-4-(2,3-dihydro-benzo[1,4]dioxin-5-yl)-piperazine] | – | 1.9 | 2.1 | – | – |
| CC(C)c1ccccc1SCCCCN1CCN(c2cccc3c2OCCO3)CC1 [Compound 7bn, 1-(2,3-Dihydro-benzo[1,4]dioxin-5-yl)-4-[4-(2-isopropyl-phenylsulfanyl)-butyl]-piperazine] | – | – | – | 93 | inhibition at 0.1 µM [1]: 93% |
| Clc1cccc(Cl)c1SCCN1CCN(c2cccc3c2OCCO3)CC1 (as salt: oxalate) [Compound 3d, 1-[2-(2,6-Dichloro-phenylsulfanyl)-ethyl]-4-(2,3-dihydro-benzo[1,4]dioxin-5-yl)-piperazine] | 188 to 191 °C (dec.) | – | – | – | – |
| Clc1cccc(Cl)c1OCCCN1CCN(c2cccc3c2OCCO3)CC1 (as salt: oxalate) [Compound 1b, 1-[3-(2,6-Dichloro-phenoxy)-propyl]-4-(2,3-dihydro-benzo[1,4]dioxin-5-yl)-piperazine] | 179 to 181 °C | – | – | – | – |
| Fc1ccccc1OCCCN1CCN(c2cccc3c2OCCO3)CC1 (as salt: oxalate) [Compound 2c, 1-(2,3-Dihydro-benzo[1,4]dioxin-5-yl)-4-[3-(2-fluoro-phenoxy)-propyl]-piperazine] | 167 to 169 °C | – | – | – | – |
| Clc1ccc(Cl)c(SCCCN2CCN(c3cccc4c3OCCO4)CC2)c1 [Compound 7ay, 1-[3-(2,5-Dichloro-phenylsulfanyl)-propyl]-4-(2,3-dihydro-benzo[1,4]dioxin-5-yl)-piperazine] | – | 2 | – | 102 | – |
| Fc1ccccc1SCCCCN1CCN(c2cccc3c2OCCO3)CC1 [Compound 7bf, 1-(2,3-Dihydro-benzo[1,4]dioxin-5-yl)-4-[4-(2-fluoro-phenylsulfanyl)-butyl]-piperazine] | – | – | – | 91 | inhibition at 0.1 µM [1]: 101% |
| N#Cc1ccc(N2CCN(CCCOc3ccc(F)cc3Cl)CC2)c2c1OCCO2 [Compound 5ck, 8-{4-[3-(2-chloro-4-fluorophenoxy)-propyl]-piperazin-1-yl}-2,3-dihydro-benzo[1,4]dioxine-5-carbonitrile] | – | 180 | – | 77 | – |
| Fc1ccc(SCCCCN2CCN(c3cccc4c3OCCO4)CC2)c(Cl)c1 [Compound 7bi, 1-[4-(2-Chloro-4-fluoro-phenylsulfanyl)-butyl]-4-(2,3-dihydrobenzo[1,4]dioxin-5-yl)-piperazine] | – | – | – | 101 | inhibition at 0.1 µM [1]: 96% |
| COc1ccccc1SCCCCN1CCN(c2cccc3c2OCCO3)CC1 [Compound 7bm, 1-(2,3-Dihydro-benzo[1,4]dioxin-5-yl)-4-[4-(2-methoxy-phenylsulfanyl)-butyl]-piperazine] | – | – | – | 83 | inhibition at 0.1 µM [1]: 95% |
| Clc1cccc(SCCN2CCN(c3cccc4c3OCCO4)CC2)c1Cl [Compound 7ah, 1-[2-(2,3-Dichloro-phenylsulfanyl)-ethyl]-4-(2,3-dihydro-benzo[1,4]dioxin-5-yl)-piperazine] | – | 1.6 | – | 87 | – |
| Clc1cccc(Cl)c1SCCN1CCN(c2cccc3c2OCCO3)CC1 [Compound 3d, 1-[2-(2,6-Dichloro-phenylsulfanyl)-ethyl]-4-(2,3-dihydro-benzo[1,4]dioxin-5-yl)-piperazine] | – | 31 | 11 | – | – |
| Clc1ccc(SCCN2CCN(c3cccc4c3OCCO4)CC2)cc1Cl [Compound 3a, 1-[2-(3,4-Dichloro-phenylsulfanyl)-ethyl]-4-(2,3-dihydro-benzof[, 4]dioxin-5-yl)-piperazine] | – | 76 | 5.4 | – | – |
| N#Cc1ccc(N2CCN(CCCOc3c(Cl)cccc3Cl)CC2)c2c1OCCO2 [Compound 5cl, 8-{4-[3-(2,6-Dichloro-phenoxy)-propyl]-piperazin-1-yl}-2,3-dihydro-benzo[1,4]dioxine-5-carbonitrile] | – | – | – | 42 | inhibition at 0.1 µM [1]: 83% |
| Clc1ccccc1SCCCN1CCN(c2cccc3ccsc23)CC1 [Compound 5ce, 1-Benzo[b]thiophen-7-yl-4-[3-(2-chloro-phenylsulfanyl)-propyl]-piperazine] | – | 4.8 | 16 | – | – |
| Clc1cccc(Cl)c1SCCCN1CCN(c2cccc3c2OCCO3)CC1 [Compound 5aw, 1-[3-(2,6-Dichloro-phenylsulfanyl)-propyl]-4-(2,3-dihydro-benzo[1,4]dioxin-5-yl)-piperazine] | – | 1.7 | 1.9 | – | – |
| Cc1ccc(SCCN2CCN(c3cccc4c3OCCO4)CC2)c(C)c1 [Compound 7ad, 1-(2,3-Dihydro-benzo[1,4]dioxin-5-yl)-4-[2-(2,4-dimethyl-phenylsulfanyl)-ethyl]-piperazine] | – | 21 | – | 91 | – |
| N#Cc1cc(Br)c(OCCCN2CCN(c3cccc4c3OCCO4)CC2)c(Br)c1 [Compound 5bx, 3,5-Dibromo-4-{3-[4-(2,3-dihydro-benzo[1,4]dioxin-5-yl)-piperazin-1-yl]-propoxy}-benzonitrile] | – | 2.2 | 19 | – | – |
| Fc1cc(Cl)c(OCCCN2CCN(c3cccc4ccsc34)CC2)c(Cl)c1 [Compound 5au, 1-Benzo[b]thiophen-7-yl-4-[3-(2,6-dichloro-4-fluoro-phenoxy)-propyl]-piperazine] | – | 6.4 | 7.6 | – | – |
| Fc1ccc(SCCCN2CCN(c3cccc4c3OCCO4)CC2)c(Cl)c1 [Compound 5ac, 1-[3-(2-Chloro-4-fluoro-phenylsulfanyl)-propyl]-4-(2,3-dihydro-benzo[1,4]dioxin-5-yl)-piperazine] | – | 2.4 | 1.4 | – | – |
| Clc1ccccc1OCCCN1CCN(c2cccc3c2OCCO3)CC1 [Compound 1a, 1-[3-(2-Chloro-phenoxy)-propyl]-4-(2,3-dihydro-benzo[1,4]dioxin-5-yl)-piperazine] | – | 10 | 1.1 | – | – |
| Cc1ccc(Cl)c(OCCCCN2CCN(c3cccc4c3OCCO4)CC2)c1 [Compound 7ao, 1-[4-(2-Chloro-5-methyl-phenoxy)-butyl]-4-(2,3-dihydro-benzo[1,4]dioxin-5-yl)-piperazine] | – | – | – | 89 | inhibition at 0.1 µM [1]: 97% |
